Experimental data as given in ChEMBL document CHEMBL1122213, “Synthesis and study of a spin-labeled cyclophosphamide analogue, 3-(1-oxy-2,2,6,6-tetramethyl-4-piperidinyl)cyclophosphamide” (J Med Chem, 1982).
Activity calls are given as the source filed them. No cut-off for these calls is given here.

Assays:
[1] = Half life was determined; format: ADME; details: rat
[2] = species on record: Mus musculus; experiment: Effect tested against L1210 lymphoid leukemia in BDF1 mice an inoculum of l0E5 cells; Inactive; format: functional, organism-based
[3] = test system: Mus musculus; experiment: Compound test for increase life span in mice after 100 mg/kg ip administration; format: functional; details: route intraperitoneal
[4] = Anticancer activity tested against L1210 lymphoid leukemia in BDF1 mice; range 75-300; format: ADME; details: mouse
[5] = Anticancer activity tested against L1210 lymphoid leukemia in BDF1 mice; range 25-100; format: ADME; details: mouse

Structure (SMILES)	half-life [1] [min]	Activity [2]	other results
CC1(C)CC(NP(=O)(O)N(CCCl)CCCl)CC(C)(C)N1O	34		
CC1(C)CC(N2CCCOP2(=O)N(CCCl)CCCl)CC(C)(C)N1[O] (configuration not stated)		inactive	Increased [3]: 64%; Sublethal dose [4]: > 300 mg/kg
CC1(C)CC(NP(=O)(O)N(CCCl)CCCl)CC(C)(C)N1[O]	51		
CC1(C)CC(NP(=O)(O)N(CCCl)CCCl)CC(C)(C)N1O.CC1(C)CC(NP(=O)(O)N(CCCl)CCCl)CC(C)(C)N1[O] [listing 1 of 2 here]			Sublethal dose [5]: > 100 mg/kg
CC1(C)CC(NP(=O)(O)N(CCCl)CCCl)CC(C)(C)N1O.CC1(C)CC(NP(=O)(O)N(CCCl)CCCl)CC(C)(C)N1[O] [listing 2 of 2 here]		inactive	
